According to PubChem BioAssay (NCI):
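How tested: cells in 96-well plates exposed to compound for 48 hours at five concentrations. TGI denotes the concentration required for complete inhibition of growth.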

Experiments:
Test in all cases: inhibition of tumour cell growth, NCI panel, 48 h
[1] = system: MCF7 breast
[2] = system: NCI-H460 lung
[3] = system: SK-OV-3 ovarian
[4] = system: MDA-MB-435
[5] = system: CAKI-1 renal
[6] = system: SN12C renal
[7] = system: MDA-MB-231 breast
[8] = system: CCRF-CEM leukemia
[9] = system: SK-MEL-2 melanoma
[10] = system: MALME-3M melanoma
[11] = system: EKVX NSCLC
[12] = system: T-47D breast
[13] = system: SK-MEL-5 melanoma
[14] = system: HCC-2998 colon
[15] = system: NCI/ADR-RES ovarian
[16] = system: A498 renal
[17] = system: HL-60(TB) leukemia
[18] = system: COLO 205 colon
[19] = system: KM12 colon
[20] = system: MDA-N
[21] = system: SF-539 CNS
[22] = system: SNB-19 CNS
[23] = system: A549 NSCLC
[24] = system: NCI-H23 lung
[25] = system: NCI-H522 lung
[26] = system: MOLT-4 leukemia
[27] = system: PC-3 prostate
[28] = system: HT29 colon
[29] = system: LOX IMVI melanoma
[30] = system: SF-295 CNS
[31] = system: TK-10 renal
[32] = system: UO-31 renal
[33] = system: HS 578T breast
[34] = system: ACHN renal
[35] = system: RPMI-8226 leukemia
[36] = system: BT-549 breast
[37] = system: M14 melanoma
[38] = system: IGROV1 ovarian
[39] = system: OVCAR-3 ovarian
[40] = system: NCI-H226 lung
[41] = system: UACC-257 melanoma
[42] = system: HOP-62 NSCLC
[43] = system: DU-145 prostate
[44] = system: SF-268 CNS
[45] = system: K-562 leukemia
[46] = system: 786-0 renal
[47] = system: U251 CNS
[48] = system: UACC-62 melanoma
[49] = system: HCT-15 colon
[50] = system: HCT-116 colon
[51] = system: HOP-92 NSCLC
[52] = system: OVCAR-5 ovarian
[53] = system: OVCAR-8 ovarian
[54] = system: SR leukemia
[55] = system: SW-620 colon
[56] = system: RXF 393 renal
[57] = system: SK-MEL-28 melanoma
[58] = system: SNB-75 CNS
[59] = system: OVCAR-4 ovarian

How did the TGI [1] turn out when `C/C(=N\O)c1ccc(Nc2nc3ccccc3c3occc23)cc1` was run?
Its TGI is 14.8 µM.

And the TGI [2]?
The TGI was 4.34 µM.

And the TGI [3]?
Its TGI is 57.4 µM.

What about the TGI [4] of the same compound?
The TGI was 44.9 µM.

And the TGI [5]?
The TGI was 7.28 µM.

And the TGI [6]?
Its TGI is 56.3 µM.

And the TGI [7]?
The TGI was 8.22 µM.

What about the TGI [8] of the same compound?
The TGI was 27.7 µM.

And the TGI [9]?
Its TGI is 51.5 µM.

What about the TGI [10] of the same compound?
Its TGI is 61.3 µM.

What about the TGI [11] of the same compound?
Its TGI is greater than 100 µM.

What about the TGI [12] of the same compound?
The TGI was 32.7 µM.

And the TGI [13]?
Its TGI is 35.1 µM.

And the TGI [14]?
The TGI was 20.8 µM.

And the TGI [15]?
The TGI was 47.8 µM.

And the TGI [16]?
Its TGI is 37.8 µM.

What about the TGI [17] of the same compound?
The TGI was 8.49 µM.

What about the TGI [18] of the same compound?
The TGI was 20 µM.

And the TGI [19]?
The TGI was 20.8 µM.

And the TGI [20]?
Its TGI is 96.6 µM.

What about the TGI [21] of the same compound?
Its TGI is 37.1 µM.

And the TGI [22]?
The TGI was greater than 100 µM.

What about the TGI [23] of the same compound?
The TGI was 34.8 µM.

And the TGI [24]?
Its TGI is 62.4 µM.

And the TGI [25]?
Its TGI is 9.47 µM.

And the TGI [26]?
The TGI was 13.6 µM.

And the TGI [27]?
Its TGI is 50.7 µM.

What about the TGI [28] of the same compound?
Its TGI is 2.68 µM.

What about the TGI [29] of the same compound?
Its TGI is 32.8 µM.

And the TGI [30]?
The TGI was 11.1 µM.

What about the TGI [31] of the same compound?
Its TGI is 7.63 µM.

What about the TGI [32] of the same compound?
The TGI was greater than 100 µM.

What about the TGI [33] of the same compound?
The TGI was 53.3 µM.

And the TGI [34]?
Its TGI is 47.7 µM.

What about the TGI [35] of the same compound?
The TGI was 6.62 µM.

What about the TGI [36] of the same compound?
The TGI was 53.1 µM.

What about the TGI [37] of the same compound?
Its TGI is 22.4 µM.

And the TGI [38]?
The TGI was 29.6 µM.

What about the TGI [39] of the same compound?
The TGI was greater than 100 µM.

And the TGI [40]?
Its TGI is 10.8 µM.

And the TGI [41]?
Its TGI is 48.2 µM.

What about the TGI [42] of the same compound?
Its TGI is 27 µM.

And the TGI [43]?
The TGI was 35.6 µM.

And the TGI [44]?
The TGI was 39.9 µM.

What about the TGI [45] of the same compound?
Its TGI is 6.04 µM.

What about the TGI [46] of the same compound?
The TGI was 9.93 µM.

And the TGI [47]?
Its TGI is greater than 100 µM.

And the TGI [48]?
The TGI was 61 µM.

What about the TGI [49] of the same compound?
The TGI was 7.77 µM.

And the TGI [50]?
The TGI was 18 µM.

What about the TGI [51] of the same compound?
Its TGI is 52.4 µM.

What about the TGI [52] of the same compound?
Its TGI is greater than 100 µM.

What about the TGI [53] of the same compound?
The TGI was 54.7 µM.

What about the TGI [54] of the same compound?
Its TGI is 5.07 µM.

With `CC1(C)OC2C(CO)OC(n3cnc(N)nc3=O)C2O1` (stereo not drawn) as the compound, how does the TGI [1] read?
Its TGI is greater than 100 µM.

And the TGI [2]?
The TGI was greater than 100 µM.

What about the TGI [3] of the same compound?
Its TGI is greater than 100 µM.

What about the TGI [4] of the same compound?
Its TGI is greater than 100 µM.

What about the TGI [5] of the same compound?
The TGI was greater than 100 µM.

What about the TGI [55] of the same compound?
Its TGI is greater than 100 µM.

And the TGI [6]?
The TGI was greater than 100 µM.

And the TGI [7]?
The TGI was greater than 100 µM.

What about the TGI [8] of the same compound?
Its TGI is greater than 100 µM.

And the TGI [9]?
The TGI was greater than 100 µM.

And the TGI [11]?
The TGI was greater than 100 µM.

What about the TGI [12] of the same compound?
The TGI was greater than 100 µM.

What about the TGI [13] of the same compound?
Its TGI is greater than 100 µM.

And the TGI [14]?
The TGI was greater than 100 µM.

What about the TGI [15] of the same compound?
Its TGI is greater than 100 µM.

What about the TGI [16] of the same compound?
The TGI was greater than 100 µM.

What about the TGI [17] of the same compound?
The TGI was greater than 100 µM.

What about the TGI [18] of the same compound?
The TGI was greater than 100 µM.

What about the TGI [20] of the same compound?
The TGI was greater than 100 µM.

And the TGI [21]?
Its TGI is greater than 100 µM.

What about the TGI [22] of the same compound?
Its TGI is greater than 100 µM.

And the TGI [23]?
The TGI was greater than 100 µM.

And the TGI [24]?
Its TGI is greater than 100 µM.

And the TGI [25]?
Its TGI is greater than 100 µM.

What about the TGI [26] of the same compound?
Its TGI is greater than 100 µM.

What about the TGI [27] of the same compound?
Its TGI is greater than 100 µM.

What about the TGI [29] of the same compound?
Its TGI is greater than 100 µM.

And the TGI [30]?
The TGI was greater than 100 µM.

And the TGI [31]?
The TGI was greater than 100 µM.

What about the TGI [32] of the same compound?
Its TGI is greater than 100 µM.

What about the TGI [33] of the same compound?
Its TGI is greater than 100 µM.

What about the TGI [34] of the same compound?
The TGI was greater than 100 µM.

What about the TGI [35] of the same compound?
Its TGI is greater than 100 µM.

And the TGI [56]?
The TGI was greater than 100 µM.

What about the TGI [36] of the same compound?
The TGI was greater than 100 µM.

What about the TGI [37] of the same compound?
Its TGI is greater than 100 µM.

What about the TGI [38] of the same compound?
The TGI was greater than 100 µM.

What about the TGI [39] of the same compound?
The TGI was greater than 100 µM.

And the TGI [40]?
Its TGI is greater than 100 µM.

What about the TGI [41] of the same compound?
Its TGI is greater than 100 µM.

And the TGI [42]?
Its TGI is greater than 100 µM.

And the TGI [43]?
The TGI was greater than 100 µM.

And the TGI [44]?
The TGI was greater than 100 µM.

And the TGI [45]?
Its TGI is greater than 100 µM.

And the TGI [46]?
Its TGI is greater than 100 µM.

What about the TGI [47] of the same compound?
Its TGI is greater than 100 µM.

And the TGI [57]?
Its TGI is greater than 100 µM.

And the TGI [48]?
The TGI was greater than 100 µM.

What about the TGI [49] of the same compound?
Its TGI is greater than 100 µM.

What about the TGI [50] of the same compound?
The TGI was greater than 100 µM.

What about the TGI [51] of the same compound?
The TGI was greater than 100 µM.

And the TGI [52]?
The TGI was greater than 100 µM.

And the TGI [53]?
Its TGI is greater than 100 µM.

And the TGI [54]?
Its TGI is greater than 100 µM.

What does the source list for `CSc1ncc2c(n1)-c1ccccc1OC2N1CCCCC1` (stereo not drawn)?
TGI [1]: 87.6 µM; TGI [2]: > 100 µM; TGI [3]: > 100 µM; TGI [4]: 87.2 µM; TGI [5]: 66.3 µM; TGI [55]: > 100 µM; TGI [6]: > 100 µM; TGI [7]: > 100 µM; TGI [8]: 49.8 µM; TGI [9]: 96.6 µM; TGI [58]: > 100 µM; TGI [11]: > 100 µM; TGI [12]: 68.2 µM; TGI [13]: 45.8 µM; TGI [15]: > 100 µM; TGI [16]: 49.9 µM; TGI [17]: 49 µM; TGI [18]: > 100 µM; TGI [19]: > 100 µM; TGI [20]: > 100 µM; TGI [21]: > 100 µM; TGI [22]: > 100 µM; TGI [23]: > 100 µM; TGI [24]: > 100 µM; TGI [25]: 42.3 µM; TGI [26]: 58 µM; TGI [27]: > 100 µM; TGI [28]: > 100 µM; TGI [29]: 46.7 µM; TGI [30]: > 100 µM; TGI [59]: > 100 µM; TGI [31]: 73.2 µM; TGI [32]: > 100 µM; TGI [33]: 99.2 µM; TGI [34]: > 100 µM; TGI [35]: 65.9 µM; TGI [56]: > 100 µM; TGI [36]: 86.2 µM; TGI [37]: > 100 µM; TGI [38]: > 100 µM; TGI [39]: > 100 µM; TGI [40]: > 100 µM; TGI [41]: > 100 µM; TGI [43]: > 100 µM; TGI [44]: > 100 µM; TGI [45]: > 100 µM; TGI [46]: > 100 µM; TGI [47]: > 100 µM; TGI [48]: > 100 µM; TGI [49]: 84.5 µM; TGI [50]: > 100 µM; TGI [51]: 84.2 µM; TGI [52]: > 100 µM; TGI [53]: > 100 µM; TGI [54]: 53.2 µM
